Tests used:
[1] = biological target: MMP-9FL (gelatinase B full-length enzyme) (Homo sapiens, UniProt P14780); test: MMP-9FL inhibition, thiopeptolide substrate hydrolysis; format: biochemical; details: average where multiple samples assayed
Protocol: (§1) The compounds were evaluated in order to determine their respective IC50 values, i.e., the micromolar concentration of compound required to achieve a 50% inhibition of the hydrolytic activity of the respective enzymes.
(§2) Experiments were carried out with the full-length (“FL”) and/or catalytic domains (“CD”) of the proteinases. […] IC50 values were determined using a thiopeptolide substrate, Ac-Pro-Leu-Gly-thioester-Leu-Leu-Gly-OEt (Ye Q.-Z., Johnson L. L., Hupe D. J., and Baragi V., “Purification and Characterization of the Human Stromelysin Catalytic Domain Expressed in Escherichia coli,” Biochemistry, 1992;31:11231-11235; Ye Q.-Z., Johnson L. L., Yu A. E., and Hupe D., “Reconstructed 19 kDa Catalytic Domain of Gelatinase A IAAP,” Biochemistry, 1995;34:4702-4708.)
(§3) The tested MMPs are available to those skilled in the art. For example, MMP-1 can be obtained from Washington University School of Medicine, St. Louis, Mo. MMP-7 can be obtained in accordance with the known procedure set forth by Ye Q. Z., Johnson L. L., and Baragi V., “Gene Syntheses and Expression in E. coli for PUMP, a Human Matrix Metalloproteinase,” Biochem. and Biophys. Res. Comm., 1992;186:143-149. MMP-13 can be obtained in accordance with the known procedure set forth by Freije J. M. P. et al., “Molecular Cloning and Expression of Collagenase-3, a Novel Human Matrix Metalloproteinase Produced by Breast Carcinomas,” J. Bio. Chem., 1994;269:16766-16773. MMP-13CD can also be expressed from a synthetic gene and purified from Escherichia coli cell culture according to a previously described method (Ye Q.-Z., Johnson L. L., and Baragi V., “Gene Synthesis and Expression in E. coli for PUMP, a Human Matrix Metalloproteinase,” Biochemical and Biophysical Research Communications, 1992;186:143-149). Hydrolysis of the thiopeptolide substrate Ac-Pro-Leu-Gly-thioester-Leu-Leu-Gly-OEt (Bachem) was used as the primary screen to determine IC50 values for MMP inhibitors. A 100 μL reaction contains 1 mM 5,5′-dithiobis(2-nitrobenzoic acid) (DTNB), 100 μM substrate, 0.1% BRIJ® 35, PROTEIN GRADE®, Detergent, 10% solution, Sigma, St. Louis, Mo. [polyoxyethyleneglycol dodecyl ether; polyoxyethylene (23) lauryl ether], enzyme, and inhibitor in the appropriate reaction buffer. Activated full-length enzymes are assayed at 5 nM, Stromelysin Catalytic Domain (SCD) at 10 nM, and Gelatinase A Catalytic Domain (GaCD) at 1 nM. Inhibitors are screened from 100 μM to 1 nM. Full-length enzymes (e.g., MMP-1 and MMP-7) are assayed in 50 mM 4-(2-[…])-piperazine-1-ethane sulfonic acid (HEPES), 10 mM CaCl2, pH 7.0; SCD in 50 mM 2-morpholinoethane sulfonic acid monohydrate (MES), 10 mM CaCl2, pH 6.0; and GaCD in 50 mM 3-morpholtriopropane sulfonic acid (MOPS), 10 mM CaCl2, 10 μM ZnCl2, pH 7.0. The change in absorbance at 405 nanometers is monitored on a ThermoMax microplate reader at room temperature continuously for 20 minutes.
(§4) The number in parenthesis indicates the number of samples assayed.

[2] = biological target: T1, MMP-7FL (matrilysin full-length enzyme) (Homo sapiens, UniProt P09237); test: MMP-7FL inhibition, thiopeptolide substrate hydrolysis; format: biochemical; details: average where multiple samples assayed
T1 construct: made in house; host or cells: E. coli
T1 sequence (P09237 95-267): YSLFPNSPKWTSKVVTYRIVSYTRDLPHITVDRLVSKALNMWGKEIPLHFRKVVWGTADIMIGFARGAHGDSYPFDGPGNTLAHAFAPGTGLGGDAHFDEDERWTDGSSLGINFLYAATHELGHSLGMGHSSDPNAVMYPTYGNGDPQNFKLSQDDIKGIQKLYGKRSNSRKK
Protocol: as §1, §2, §3, §4

[3] = biological target: T2, MMP-1FL (collagenase-1 full-length enzyme) (Homo sapiens, UniProt P03956); test: MMP-1FL inhibition, thiopeptolide substrate hydrolysis; format: biochemical; details: average where multiple samples assayed
T2 construct: purchased Washington University School of Medicine, St. Louis, Mo
T2 sequence (P03956 100-469): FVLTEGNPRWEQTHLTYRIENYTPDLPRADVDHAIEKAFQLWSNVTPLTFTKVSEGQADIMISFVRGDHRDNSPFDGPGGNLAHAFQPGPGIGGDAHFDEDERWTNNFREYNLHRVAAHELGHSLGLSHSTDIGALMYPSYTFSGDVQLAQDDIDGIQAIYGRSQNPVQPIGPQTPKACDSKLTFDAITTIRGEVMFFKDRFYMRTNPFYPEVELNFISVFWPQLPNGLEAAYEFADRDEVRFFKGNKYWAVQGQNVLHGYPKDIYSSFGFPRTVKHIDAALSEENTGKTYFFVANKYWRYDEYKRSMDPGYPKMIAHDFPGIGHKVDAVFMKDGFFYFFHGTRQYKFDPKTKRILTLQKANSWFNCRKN
Protocol: as §1, §2, §3, §4

[4] = biological target: T3, MMP-2FL (gelatinase A full-length enzyme) (Homo sapiens, UniProt P08253); test: MMP-2FL inhibition, thiopeptolide substrate hydrolysis; format: biochemical; details: average where multiple samples assayed
T3 sequence (P08253 110-660): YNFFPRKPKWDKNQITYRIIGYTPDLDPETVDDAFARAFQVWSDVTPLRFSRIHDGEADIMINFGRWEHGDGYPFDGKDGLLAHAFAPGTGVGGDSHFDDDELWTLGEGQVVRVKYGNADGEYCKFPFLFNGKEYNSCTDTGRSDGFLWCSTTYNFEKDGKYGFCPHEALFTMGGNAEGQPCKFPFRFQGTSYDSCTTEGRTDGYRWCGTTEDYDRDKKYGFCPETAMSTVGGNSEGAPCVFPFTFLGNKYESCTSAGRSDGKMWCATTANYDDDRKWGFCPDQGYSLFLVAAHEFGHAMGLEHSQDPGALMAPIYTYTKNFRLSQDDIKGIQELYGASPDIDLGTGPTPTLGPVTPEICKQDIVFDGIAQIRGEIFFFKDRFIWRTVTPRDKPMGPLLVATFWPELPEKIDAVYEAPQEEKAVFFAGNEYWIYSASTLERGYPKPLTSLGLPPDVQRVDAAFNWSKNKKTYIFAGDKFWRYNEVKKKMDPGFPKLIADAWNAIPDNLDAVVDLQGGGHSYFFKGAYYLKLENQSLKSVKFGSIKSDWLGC
Protocol: as §1, §2, §3, §4

[5] = biological target: T4, MMP-14CD (membrane-type MMP-1 catalytic domain) (Homo sapiens, UniProt P50281); test: MMP-14CD inhibition, thiopeptolide substrate hydrolysis; format: biochemical; details: average where multiple samples assayed
T4 construct: MMP-14CD (membrane-type MMP-1 catalytic domain)
Protocol: as §1, §2, §3, §4

[6] = biological target: MMP-2CD (gelatinase A catalytic domain) (Homo sapiens, UniProt P08253); test: MMP-2CD inhibition, thiopeptolide substrate hydrolysis; format: biochemical; details: average where multiple samples assayed
Protocol: as §1, §2, §3, §4

[7] = biological target: T5, MMP-13CD (collagenase-3 catalytic domain) (Homo sapiens, UniProt P45452); test: MMP-13CD inhibition, thiopeptolide substrate hydrolysis; format: biochemical; details: average where multiple samples assayed
T5 construct: MMP-13CD (collagenase-3 catalytic domain); made in house; host or cells: Escherichia coli
Protocol: as §1, §2, §3, §4

[8] = biological target: T6, MMP-3CD (stromelysin-1 catalytic domain) (Homo sapiens, UniProt P08254); test: MMP-3CD inhibition, thiopeptolide substrate hydrolysis; format: biochemical; details: average where multiple samples assayed
T6 construct: MMP-3CD (stromelysin-1 catalytic domain); made in house; host or cells: Escherichia coli
Protocol: as §1, §2, §3, §4

Sequence of MMP-2CD (gelatinase A catalytic domain) (P08253 with tags, fused parts or gaps DEL220-393): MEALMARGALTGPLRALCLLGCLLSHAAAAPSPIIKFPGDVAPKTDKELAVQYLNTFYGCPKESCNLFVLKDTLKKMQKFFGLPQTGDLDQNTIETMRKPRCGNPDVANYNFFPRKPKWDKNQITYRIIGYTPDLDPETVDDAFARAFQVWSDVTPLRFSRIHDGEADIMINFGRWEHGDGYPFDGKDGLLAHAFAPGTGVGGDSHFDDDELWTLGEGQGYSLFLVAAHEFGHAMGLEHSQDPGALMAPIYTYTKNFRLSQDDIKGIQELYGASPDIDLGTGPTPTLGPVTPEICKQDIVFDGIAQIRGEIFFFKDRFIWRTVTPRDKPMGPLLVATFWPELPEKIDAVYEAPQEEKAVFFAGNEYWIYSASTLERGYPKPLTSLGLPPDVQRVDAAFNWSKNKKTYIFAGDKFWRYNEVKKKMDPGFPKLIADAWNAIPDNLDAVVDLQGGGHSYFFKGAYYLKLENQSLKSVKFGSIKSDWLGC
Sequence of MMP-9FL (gelatinase B full-length enzyme) (P14780 107-707 limits assumed, species assumed): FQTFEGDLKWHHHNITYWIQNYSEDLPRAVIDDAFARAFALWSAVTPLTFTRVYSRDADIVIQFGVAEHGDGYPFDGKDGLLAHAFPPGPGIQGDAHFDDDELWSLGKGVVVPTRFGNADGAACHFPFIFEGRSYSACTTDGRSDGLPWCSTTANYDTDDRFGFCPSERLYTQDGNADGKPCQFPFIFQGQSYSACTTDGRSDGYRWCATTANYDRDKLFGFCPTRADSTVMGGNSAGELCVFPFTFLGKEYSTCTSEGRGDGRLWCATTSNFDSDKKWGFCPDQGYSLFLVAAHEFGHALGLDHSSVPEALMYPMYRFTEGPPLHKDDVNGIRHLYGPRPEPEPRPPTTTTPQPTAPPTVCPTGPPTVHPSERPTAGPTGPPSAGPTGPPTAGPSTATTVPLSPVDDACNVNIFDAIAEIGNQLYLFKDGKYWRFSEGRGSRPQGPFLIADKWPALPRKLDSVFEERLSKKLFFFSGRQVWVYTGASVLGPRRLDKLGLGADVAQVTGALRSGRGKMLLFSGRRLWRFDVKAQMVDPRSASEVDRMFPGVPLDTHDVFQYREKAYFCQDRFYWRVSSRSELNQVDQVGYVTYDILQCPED
T6 sequence (P08254 100-272 limits assumed): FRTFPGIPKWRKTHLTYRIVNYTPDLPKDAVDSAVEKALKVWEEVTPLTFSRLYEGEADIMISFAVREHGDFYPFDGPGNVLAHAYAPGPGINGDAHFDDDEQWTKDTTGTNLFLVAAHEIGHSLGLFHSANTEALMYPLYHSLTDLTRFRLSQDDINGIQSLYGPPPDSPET

Row | SMILES | IC50 [1] | IC50 [2] | IC50 [3] | IC50 [4] | IC50 [5] | IC50 [6] | IC50 [7] | IC50 [8] | melting point
1 | CC(C)(NS(=O)(=O)c1ccc2c(c1)oc1ccccc12)C(=O)O [Example 29, 2-(Dibenzofuran-3-sulfonylamino)-2-methyl-propionic acid] | 11500 nM | 34000 nM | 8250 nM | 19.8 nM | 22.5 nM | 2.65 nM | 450 nM | 8.35 nM | 220 to 224 °C
2 | O=C(NO)C1(NS(=O)(=O)c2ccc3c(c2)oc2ccccc23)CCOCC1 [Example 31, 4-(Dibenzofuran-3-sulfonylamino)-tetrahydro-pyran-4-carboxylic acid hydroxyamide] | 250 nM | 3000 nM | 380 nM | 5.25 nM | 5.75 nM | 2.3 nM | 48 nM | 14.7 nM | 160 to 162 °C
3 | O=C(NO)C1(NS(=O)(=O)c2ccc3c(c2)oc2ccccc23)CCCCC1 [Example 28, 1-(Dibenzofuran-3-sulfonylamino)-cyclohexanecarboxylic acid hydroxyamide] | 135 nM | 4050 nM | 295 nM | 4.5 nM | 3.9 nM | 1.7 nM | 49 nM | 15.5 nM | 184 to 186 °C
4 | O=C(O)C1(NS(=O)(=O)c2ccc3c(c2)oc2ccccc23)CCCCC1 [Example 27, 1-(Dibenzofuran-3-sulfonylamino)-cyclohexanecarboxylic acid] | 3700 nM | 4250 nM | 1750 nM | 23 nM | 26.5 nM | 2.7 nM | 230 nM | 9.25 nM | 239 to 243 °C
5 | CC(C)(NS(=O)(=O)c1ccc2oc3cc(Cl)ccc3c2c1)C(=O)NO [Example 33, 2-(7-Chloro-dibenzofuran-2 sulfonylamino)-N-hydroxy-2-methyl-propionamide] | 15000 nM | 920 nM | 3050 nM | 125 nM | 300 nM | 81 nM | 110 nM | 43 nM | –
6 | O=C(NO)C1(NS(=O)(=O)c2ccc3oc4cc(Br)ccc4c3c2)CCCC1 [Example 32, 1-(7-Bromo-dibenzofuran-2-sulfonylamino)-cyclopentane carboxylic acid hydroxamide] | 13000 nM | 350 nM | 5750 nM | 205 nM | 340 nM | 82.7 nM | 165 nM | 35 nM | –
7 | CC(C)(NS(=O)(=O)c1ccc2c(c1)oc1ccccc12)C(=O)NO [Example 30, 2-(Dibenzofuran-3-sulfonylamino)-N-hydroxy-2-methyl-propionamide] | 860 nM | 100000 nM | 905 nM | 4.75 nM | 13.5 nM | 4.3 nM | 105 nM | 83.5 nM | 168 to 169 °C
